From PubChem BioAssay (NCI)
“And” between values parts separate entries of the source, which are not always exact repeats. Identical values can stand only once.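 A five-concentration, 48-hour dose response in 96-well plates underlies each endpoint, interpolated linearly between surrounding concentrations. At the GI50, growth is halved. TGI: concentration producing complete growth inhibition.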

Columns and labels:
Test in all cases: growth of human tumour cells (NCI), 48 h
A498 renal = system: A498 renal
A549 NSCLC = system: A549 NSCLC
COLO 205 colon = system: COLO 205 colon
HS 578T breast = system: HS 578T breast
OVCAR-4 ovarian = system: OVCAR-4 ovarian
SF-539 CNS = system: SF-539 CNS
SK-MEL-2 melanoma = system: SK-MEL-2 melanoma
SR leukemia = system: SR leukemia
KM12 colon = system: KM12 colon
MALME-3M melanoma = system: MALME-3M melanoma

Row | Structure (SMILES) | GI50 (A498 renal) | TGI (A498 renal) | GI50 (A549 NSCLC) [µM] | TGI (A549 NSCLC) [µM] | GI50 (COLO 205 colon) | TGI (COLO 205 colon) [µM] | GI50 (HS 578T breast) | TGI (HS 578T breast) | GI50 (OVCAR-4 ovarian) | TGI (OVCAR-4 ovarian) | GI50 (SF-539 CNS) [µM] | TGI (SF-539 CNS) | GI50 (SK-MEL-2 melanoma) | TGI (SK-MEL-2 melanoma) | GI50 (SR leukemia) | TGI (SR leukemia) [µM] | GI50 (KM12 colon) [µM] | TGI (KM12 colon) [µM] | TGI (MALME-3M melanoma) [µM] | GI50 (MALME-3M melanoma) [µM]
1 | CCOc1ccc2nc(SCc3nc4n(n3)S(=O)(=O)c3ccccc3N4C)sc2c1 | > 100 µM | > 100 µM | > 100 | > 100 | > 100 µM | > 100 | 45 µM | > 100 µM | > 100 µM | > 100 µM | 53.8 | > 100 µM | > 100 µM | > 100 µM | 51.5 µM | > 100 |  |  |  | 
2 | Cc1ccc(C)c2c1C(O)(C#Cc1ccccc1)c1ccccc1C2(O)C#Cc1ccccc1 (configuration not stated) | 2.2 µM | 14.9 µM | 3.12 | > 100 | 2.01 µM | 6.48 | 3.4 µM | > 100 µM | 3.85 µM | > 100 µM | 3.42 | > 79.3 µM | 2.98 µM | 11.5 µM | 2.52 µM | > 100 | 2.93 | 27.1 |  | 
3 | CC(C)=CCc1c(OC(=O)c2c(C)cc(O)cc2O)cc(CO)c(CO)c1O |  | 35.1 µM |  | 62.2 |  | 33.8 |  | 54.8 µM |  | 38.2 µM |  | 38 µM |  | 59.5 µM |  | 94.5 |  | 30.6 | 45.4 | 
4 | O=C1c2ccccc2-c2c1c1c(=O)[nH]c3ccccc3c1n2Cc1ccccc1 | 21.1 µM | 50.6 µM | > 100 | > 100 | > 100 µM | > 100 | 16.5 µM | 35.7 µM | 45.4 µM | > 100 µM | 17.8 | 40.5 µM | > 100 µM | > 100 µM | > 100 µM | > 100 | > 100 | > 100 | > 100 | 37.1
5 | COc1cc(C#Cc2ccc(=O)oc2C#Cc2ccccc2)cc(OC)c1OC | 19.1 µM | 34.5 µM | 10.3 | 43.9 |  |  | 5.83 µM | 43.9 µM | 4.97 µM | 68.6 µM | 3.58 | 11.3 µM | 5.69 µM | 12.7 µM | 1.84 µM | > 31.3 | 15.1 | 44.8 | 7.21 | 2.99
6 | COc1cc(/C=C2\C(=O)Nc3cc(C)c(O)cc32)cc(OC)c1OC | 8.5 µM | 25.4 µM | 6.13 | > 79.6 | 6.09 µM | 22.8 | 2.18 µM | 9.93 µM | 8.23 µM | > 67.7 µM | 5.41 | 19.6 µM | 2.97 µM | 14.5 µM | 0.857 µM | 5.84 | 2.62 | 11.4 | 9.11 | 0.454
7 | CCCC(=O)NC1=C(Cl)C(=O)c2ccccc2C1=O |  | 26.1 µM |  | 16.9 |  | 3.83 |  | > 39.9 µM |  | 17.1 µM |  | 7.33 µM |  | 6.07 µM |  | 6.31 |  | 15.2 |  | 
8 | CCOC(=O)c1sc(-c2ccc(OS(=O)(=O)c3ccc(Br)s3)c(C=O)c2)nc1C | 6.15 µM | 40.1 µM | 22.7 | > 100 | 16.8 µM | 33.8 | 10.6 µM | 36.3 µM | 3.06 µM | 9.85 µM | 2.43 | 6.16 µM | 4.83 µM | 27.8 µM | 3.14 µM | > 100 | 3.36 | 11.6 | 18.1 | 4.08
9 | Cn1cc(C2=C(c3cn(CCCCN)c4ccccc34)C(=O)NC2=O)c2ccccc21 | > 25 µM | > 25 µM | > 25 | > 25 | > 25 µM | > 25 | > 25 µM | > 25 µM | > 25 µM | > 25 µM | > 25 | > 25 µM | > 25 µM | > 25 µM | > 25 µM | > 25 | > 25 | > 25 | > 25 | > 25
10 | S=C(Nc1ccc(Br)cc1)Nc1ccc(Br)cc1 | 5.38 µM | > 100 µM | 5.8 | > 100 | 7.82 µM | > 100 | 85 µM | > 100 µM | 7.51 µM | > 100 µM | > 100 | > 100 µM | 7.93 µM | > 100 µM | 6.96 µM | > 100 | 3.63 | > 100 | > 100 | 11.7
11 | O=c1c(Oc2ccc(F)cc2F)cc2cnc(NC3CCOCC3)nc2n1CCCO | > 18.3 µM | > 25 µM | > 25 | > 25 | > 25 µM | > 25 | > 25 µM | > 25 µM | > 14.6 µM | > 25 µM | > 25 | > 25 µM | > 25 µM | > 25 µM | > 25 µM | > 25 | > 25 | > 25 | > 25 | > 25
12 | Cc1cc(=O)oc2cc(OC(=O)N(C)C)c(Cl)cc12 |  | > 100 µM |  | > 100 |  | > 100 |  | > 100 µM |  | > 100 µM |  | > 100 µM |  | > 100 µM |  | > 100 |  | > 100 | > 100 | 
13 | CC(=O)OCC1OC(n2c(-c3ccc(Cl)cc3)ccc(C#N)c2=S)C(OC(C)=O)C(OC(C)=O)C1OC(C)=O (configuration not stated) | 24.9 µM and 73.8 µM | 56.1 µM and > 100 µM |  | > 100 | > 100 µM and 49.5 µM | > 100 | 5.34 µM and 23.8 µM | 67.3 µM and > 100 µM | > 100 µM and 19.9 µM | > 100 µM and 93.3 µM |  | 99 µM and > 100 µM | 16 µM and 87 µM | 45.6 µM and > 100 µM | > 100 µM and 40.2 µM | > 100 |  | > 100 | > 100 | 
14 | CCCNNC(=O)/C=C/c1ccc(CNCCc2c(C)[nH]c3ccccc23)cc1 | 0.00955 µM | 0.0244 µM | 0.0689 | 2.02 | 0.0111 µM | 0.0428 | 0.0437 µM | 0.621 µM | 0.0525 µM | 6.45 µM | 0.0435 | 3.78 µM | 0.0342 µM | 3.68 µM | 0.0191 µM | 4.26 | 0.0485 | 0.966 | 1.22 | 0.015
